Measured values taken from ChEMBL document CHEMBL1201861, “Genomics of Drug Sensitity in Cancer screening data, Wellcome Trust Sanger Institute”.
Values joined by “and” are separate entries in the source; they are usually repeats but may differ in a detail not shown here. Equal values may be shown once. Where a SMILES comes first, the peptide text is derived from it. The star is where a group is joined. Cbz = O=C(OCc1ccccc1)*

Columns and labels:
Assay in all cases: cells
LS-1034 = format: functional, cell-based, Homo sapiens
Description: SANGER: Inhibition of human LS-1034 cell growth in a cell viability assay.

SW684 = format: functional, cell-based, Homo sapiens; conditions: read-out: IC50;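 note: growth inhibition of human SW684 cells, measured by a cell viability assay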
Description: SANGER: Inhibition of human SW684 cell growth in a cell viability assay.

EW-18 = format: functional, cell-based, Homo sapiens; conditions: read-out: IC50;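 note: growth inhibition of EW-18 cells, read out by a cell viability assay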
Description: SANGER: Inhibition of human EW-18 cell growth in a cell viability assay.

TGBC24TKB = format: functional, cell-based; conditions: Homo sapiens;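 note: growth inhibition of human TGBC24TKB cells, read out with a cell viability assay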
Description: SANGER: Inhibition of human TGBC24TKB cell growth in a cell viability assay.

LB1047-RCC = format: functional, cell-based, Homo sapiens;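 note: inhibition of cell growth, determined with a cell viability assay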
Description: SANGER: Inhibition of human LB1047-RCC cell growth in a cell viability assay.

OS-RC-2 = format: functional, cell-based, Homo sapiens;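 note: growth inhibition of human OS-RC-2 cells, measured by a cell viability assay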
Description: SANGER: Inhibition of human OS-RC-2 cell growth in a cell viability assay.

SNU-5 = format: functional, cell-based, Homo sapiens;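 note: cell viability readout used to measure growth inhibition in human NCI-SNU-5 cells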
Description: SANGER: Inhibition of human NCI-SNU-5 cell growth in a cell viability assay.

HH = format: functional, cell-based, Homo sapiens
Description: SANGER: Inhibition of human HH cell growth in a cell viability assay.

COLO-320-HSR = format: functional, cell-based, Homo sapiens;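 note: growth inhibition of COLO-320-HSR cells, determined with a cell viability assay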
Description: SANGER: Inhibition of human COLO-320-HSR cell growth in a cell viability assay.

RS4-11 = format: functional, cell-based, Homo sapiens;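 note: growth inhibition of RS4-11 cells, read out by a cell viability assay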
Description: SANGER: Inhibition of human RS4-11 cell growth in a cell viability assay.

NCI-H23 = format: functional, cell-based, Homo sapiens;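 note: cell viability assay measuring growth inhibition of NCI-H23 cells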
Description: SANGER: Inhibition of human NCI-H23 cell growth in a cell viability assay.

RCC10RGB = format: functional, cell-based, Homo sapiens;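 note: growth inhibition of human RCC10RGB cells, read out by a cell viability assay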
Description: SANGER: Inhibition of human RCC10RGB cell growth in a cell viability assay.

KE-37 = format: functional, cell-based, Homo sapiens;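 note: growth inhibition of KE-37 cells, read out with a cell viability assay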
Description: SANGER: Inhibition of human KE-37 cell growth in a cell viability assay.

Lu-65 = format: functional, cell-based, Homo sapiens;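 note: growth inhibition of Lu-65 cancer cells, read out by a cell viability assay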
Description: SANGER: Inhibition of human LU-65 cell growth in a cell viability assay.

EKVX = format: functional, cell-based, Homo sapiens;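 note: growth inhibition of human EKVX cells, read out with a cell viability assay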
Description: SANGER: Inhibition of human EKVX cell growth in a cell viability assay.

LAMA-84 = format: functional, cell-based, Homo sapiens;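 note: growth inhibition of LAMA-84 cells, read out with a cell viability assay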
Description: SANGER: Inhibition of human LAMA-84 cell growth in a cell viability assay.

KURAMOCHI = format: functional, cell-based, Homo sapiens;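 note: growth inhibition of KURAMOCHI cells, read out with a cell viability assay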
Description: SANGER: Inhibition of human KURAMOCHI cell growth in a cell viability assay.

LC-2-ad = format: functional, cell-based, Homo sapiens;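 note: growth inhibition of human LC-2-ad cells, read out with a cell viability assay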
Description: SANGER: Inhibition of human LC-2-ad cell growth in a cell viability assay.

RKO = format: functional, cell-based, Homo sapiens;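 note: growth inhibition of human RKO cells, read out with a cell viability assay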
Description: SANGER: Inhibition of human RKO cell growth in a cell viability assay.

C8166 = format: functional, cell-based, Homo sapiens;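 note: growth inhibition of human C8166 cells measured by a cell viability assay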
Description: SANGER: Inhibition of human C8166 cell growth in a cell viability assay.

L-363 = format: functional, cell-based, Homo sapiens
Description: SANGER: Inhibition of human L-363 cell growth in a cell viability assay.

AM-38 = format: functional, cell-based, Homo sapiens;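 note: growth inhibition of AM-38 cells of human origin, read out by a cell viability assay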
Description: SANGER: Inhibition of human AM-38 cell growth in a cell viability assay.

D-263MG = format: functional, cell-based, Homo sapiens
Description: SANGER: Inhibition of human D-263MG cell growth in a cell viability assay.

SF-126 = format: functional, cell-based, Homo sapiens;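 note: growth inhibition of human SF126 cells, read out with a cell viability assay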
Description: SANGER: Inhibition of human SF126 cell growth in a cell viability assay.

LAN-6 = format: functional, cell-based, Homo sapiens;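 note: growth inhibition of LAN-6 cells, determined with a cell viability assay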
Description: SANGER: Inhibition of human LAN-6 cell growth in a cell viability assay.

NCI-H526 = format: functional, cell-based, Homo sapiens;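 note: growth inhibition of the human NCI-H526 cell line, measured by a cell viability assay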
Description: SANGER: Inhibition of human NCI-H526 cell growth in a cell viability assay.

TE-11 = format: functional, cell-based; conditions: Homo sapiens;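 note: growth inhibition of human TE-11 cells, read out by a cell viability assay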
Description: SANGER: Inhibition of human TE-11 cell growth in a cell viability assay.

A4-Fuk = format: functional, cell-based, Homo sapiens;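 note: growth inhibition of A4-Fuk cells, read out by a cell viability assay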
Description: SANGER: Inhibition of human A4-Fuk cell growth in a cell viability assay.

NCI-H747 = format: functional, cell-based, Homo sapiens;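 note: growth inhibition of human NCI-H747 cells, read out by a cell viability assay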
Description: SANGER: Inhibition of human NCI-H747 cell growth in a cell viability assay.

LS-123 = format: functional, cell-based, Homo sapiens
Description: SANGER: Inhibition of human LS-123 cell growth in a cell viability assay.

CTV-1 = format: functional, cell-based, Homo sapiens;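 note: growth inhibition of the cell line, read out with a cell viability assay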
Description: SANGER: Inhibition of human CTV-1 cell growth in a cell viability assay.

NCI-H69 = format: functional, cell-based, Homo sapiens;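 note: growth inhibition of the cell line, read out with a cell viability assay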
Description: SANGER: Inhibition of human NCI-H69 cell growth in a cell viability assay.

NCI-H82 = format: functional, cell-based, Homo sapiens;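 note: growth inhibition of NCI-H82 cells, measured with a cell viability readout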
Description: SANGER: Inhibition of human NCI-H82 cell growth in a cell viability assay.

HDLM-2 = format: functional, cell-based, Homo sapiens;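 note: cell viability assay measuring suppression of HDLM-2 proliferation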
Description: SANGER: Inhibition of human HDLM-2 cell growth in a cell viability assay.

MS-1 = format: functional, cell-based, Homo sapiens;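 note: growth inhibition of MS-1 cells, read out by cell viability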
Description: SANGER: Inhibition of human MS-1 cell growth in a cell viability assay.

LU-134-A = format: functional, cell-based, Homo sapiens
Description: SANGER: Inhibition of human LU-134-A cell growth in a cell viability assay.

QIMR-WIL = format: functional, cell-based, Homo sapiens;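 note: growth inhibition of QIMR-WIL cells, read out with a cell viability assay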
Description: SANGER: Inhibition of human QIMR-WIL cell growth in a cell viability assay.

LU-139 = format: functional, cell-based, Homo sapiens
Description: SANGER: Inhibition of human LU-139 cell growth in a cell viability assay.

JVM-3 = format: functional, cell-based, Homo sapiens;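 note: growth inhibition of human JVM-3 cells, read out with a cell viability assay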
Description: SANGER: Inhibition of human JVM-3 cell growth in a cell viability assay.

HAL-01 = format: functional, cell-based, Homo sapiens;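 note: growth inhibition of human HAL-01 cells, read out with a cell viability assay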
Description: SANGER: Inhibition of human HAL-01 cell growth in a cell viability assay.

NCI-H1650 = format: functional, cell-based, Homo sapiens;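 note: growth inhibition of human NCI-H1650 cells measured by a cell viability assay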
Description: SANGER: Inhibition of human NCI-H1650 cell growth in a cell viability assay.

KY821 = format: functional, cell-based, Homo sapiens;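 note: growth inhibition of human KY821 cells, read out by a cell viability assay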
Description: SANGER: Inhibition of human KY821 cell growth in a cell viability assay.

NKM-1 = format: functional, cell-based, Homo sapiens;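 note: growth inhibition of NKM-1 cells, read out with a cell viability assay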
Description: SANGER: Inhibition of human NKM-1 cell growth in a cell viability assay.

KG-1 = format: functional, cell-based, Homo sapiens;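 note: growth inhibition of KG-1 cells, read out by a cell viability assay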
Description: SANGER: Inhibition of human KG-1 cell growth in a cell viability assay.

JVM-2 = format: functional, cell-based, Homo sapiens;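 note: growth inhibition of JVM-2 cells determined by a cell viability assay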
Description: SANGER: Inhibition of human JVM-2 cell growth in a cell viability assay.

ES3 = format: functional, cell-based, Homo sapiens;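 note: growth inhibition of ES3 cells, read out with a cell viability assay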
Description: SANGER: Inhibition of human ES3 cell growth in a cell viability assay.

LXF-289 cell line = format: functional, cell-based; conditions: Homo sapiens
Description: SANGER: Inhibition of human LXF-289 cell growth in a cell viability assay.

A388 = format: functional, cell-based; conditions: Homo sapiens;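 note: growth inhibition of human A388 cells, read out with a cell viability assay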
Description: SANGER: Inhibition of human A388 cell growth in a cell viability assay.

ES6 = format: functional, cell-based; conditions: Homo sapiens;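 note: growth inhibition of human ES6 cells, read out with a cell viability assay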
Description: SANGER: Inhibition of human ES6 cell growth in a cell viability assay.

In the case of `CC(C)C[C@@H](C=O)NC(=O)[C@H](CC(C)C)NC(=O)[C@H](CC(C)C)NC(=O)OCc1ccccc1` [MG-132] (Cbz-Leu-Leu-Leu-aldehyde), the IC50 (LS-1034; ls-1034) is reported as > 1000 nM, the IC50 (SW684; sw684) is reported as > 1000 nM and the IC50 (EW-18; ew-18) is reported as > 1000 nM. For the same molecule, the IC50 (TGBC24TKB) was > 1000 nM, the IC50 (LB1047-RCC; Homo sapiens, LB1047-RCC) was > 1000 nM and the IC50 (LB1047-RCC; lb1047-rcc) was > 1000 nM. For the same molecule, the IC50 (OS-RC-2; os-rc-2) was 480 nM and > 1000 nM, the IC50 (SNU-5; snu-5) was 695 nM and > 1000 nM and the IC50 (HH; Homo sapiens, HH) was 329 nM. The IC50 (HH; hh) was 571 nM, the IC50 (COLO-320-HSR; colo-320-hsr) was > 1000 nM and the IC50 (RS4-11; rs4-11) was > 1000 nM and 956 nM. The IC50 (NCI-H23; nci-h23) was > 1000 nM, the IC50 (RCC10RGB; Homo sapiens, RCC10RGB) was > 1000 nM and the IC50 (RCC10RGB; rcc10rgb) was > 1000 nM. The IC50 (KE-37; ke-37) was 133 nM and 639 nM, the IC50 (Lu-65; lu-65) was > 1000 nM and the IC50 (EKVX; ekvx) was > 1000 nM. For the same molecule, the IC50 (LAMA-84; lama-84) was 219 nM and > 1000 nM, the IC50 (KURAMOCHI; kuramochi) was > 1000 nM and the IC50 (LC-2-ad; Homo sapiens, LC-2-ad) was > 1000 nM. For the same molecule, the IC50 (LC-2-ad; lc-2-ad) was > 1000 nM, the IC50 (RKO; rko) was > 1000 nM and 932 nM and the IC50 (C8166; c8166) was > 1000 nM. For the same molecule, the IC50 (L-363; Homo sapiens, L-363) was > 1000 nM, the IC50 (L-363; l-363) was > 1000 nM and the IC50 (AM-38; am-38) was > 1000 nM. The IC50 (D-263MG; d-263mg) was 160 nM and > 1000 nM, the IC50 (SF-126; sf-126) was 990 nM and > 1000 nM and the IC50 (LAN-6; lan-6) was 313 nM and > 1000 nM. For the same molecule, the IC50 (NCI-H526; nci-h526) was > 1000 nM, the IC50 (TE-11) was > 1000 nM and the IC50 (A4-Fuk; a4-fuk) was > 1000 nM. The IC50 (NCI-H747; Homo sapiens, NCI-H747) was 371 nM, the IC50 (NCI-H747; nci-h747) was 713 nM and the IC50 (LS-123; ls-123) was > 1000 nM. For the same molecule, the IC50 (CTV-1; ctv-1) was > 1000 nM, the IC50 (NCI-H69; nci-h69) was 151 nM and > 1000 nM and the IC50 (NCI-H82; nci-h82) was > 1000 nM. For the same molecule, the IC50 (HDLM-2; hdlm-2) was > 1000 nM, the IC50 (MS-1; Homo sapiens, MS-1) was > 1000 nM and the IC50 (MS-1; ms-1) was > 1000 nM. For the same molecule, the IC50 (LU-134-A; Homo sapiens, LU-134-A) was > 1000 nM, the IC50 (LU-134-A; lu-134-a) was > 1000 nM and the IC50 (QIMR-WIL; qimr-wil) was > 1000 nM. For the same molecule, the IC50 (LU-139; lu-139) was > 1000 nM, the IC50 (JVM-3; jvm-3) was > 1000 nM and the IC50 (HAL-01; hal-01) was > 1000 nM. The IC50 (NCI-H1650; nci-h1650) was > 1000 nM, the IC50 (KY821; ky821) was > 1000 nM and the IC50 (NKM-1; nkm-1) was > 1000 nM. The IC50 (KG-1; kg-1) was > 1000 nM, the IC50 (JVM-2; jvm-2) was > 1000 nM and the IC50 (ES3; es3) was > 1000 nM.
With `CO[C@@H]1[C@H](N(C)C(=O)c2ccccc2)C[C@H]2O[C@]1(C)n1c3ccccc3c3c4c(c5c6ccccc6n2c5c31)C(=O)NC4` [MIDOSTAURIN] the IC50 (EW-18; Homo sapiens, EW-18) was 322 nM, the IC50 (COLO-320-HSR; Homo sapiens, COLO-320-HSR) was > 512 nM and the IC50 (Lu-65; Homo sapiens, Lu-65) was > 512 nM. The IC50 (LXF-289 cell line) was 330 nM and the IC50 (NCI-H747; Homo sapiens, NCI-H747) was > 512 nM.
For `Cc1ccc(C(=O)Nc2ccc(CN3CCN(C)CC3)c(C(F)(F)F)c2)cc1C#Cc1cnc2cccnn12` [PONATINIB], the IC50 (LS-1034; Homo sapiens, LS-1034) was > 512 nM, the IC50 (SW684; Homo sapiens, SW684) was > 512 nM and the IC50 (EW-18; Homo sapiens, EW-18) was > 512 nM. The IC50 (TGBC24TKB) was > 512 nM, the IC50 (LB1047-RCC; Homo sapiens, LB1047-RCC) was > 512 nM and the IC50 (OS-RC-2; Homo sapiens, OS-RC-2) was > 512 nM. The IC50 (SNU-5; Homo sapiens, SNU-5) was > 512 nM, the IC50 (HH; Homo sapiens, HH) was > 512 nM and the IC50 (COLO-320-HSR; Homo sapiens, COLO-320-HSR) was > 512 nM. For the same molecule, the IC50 (RS4-11; Homo sapiens, RS4-11) was > 512 nM, the IC50 (NCI-H23; Homo sapiens, NCI-H23) was > 512 nM and the IC50 (RCC10RGB; Homo sapiens, RCC10RGB) was > 512 nM. The IC50 (KE-37; Homo sapiens, KE-37) was > 512 nM, the IC50 (Lu-65; Homo sapiens, Lu-65) was > 512 nM and the IC50 (EKVX; Homo sapiens, EKVX) was > 512 nM. For the same molecule, the IC50 (LAMA-84; Homo sapiens, LAMA-84) was < 2 nM, the IC50 (KURAMOCHI; Homo sapiens, KURAMOCHI) was 284 nM and the IC50 (LC-2-ad; Homo sapiens, LC-2-ad) was 243 nM. For the same molecule, the IC50 (RKO; Homo sapiens, RKO) was > 512 nM, the IC50 (C8166; Homo sapiens, C8166) was > 512 nM and the IC50 (L-363; Homo sapiens, L-363) was > 512 nM. For the same molecule, the IC50 (A388) was > 512 nM, the IC50 (AM-38; Homo sapiens, AM-38) was > 512 nM and the IC50 (LXF-289 cell line) was > 512 nM. The IC50 (D-263MG; Homo sapiens, D-263MG) was > 512 nM, the IC50 (SF-126; Homo sapiens, SF-126) was 171 nM and the IC50 (LAN-6; Homo sapiens, LAN-6) was > 512 nM. The IC50 (NCI-H526; Homo sapiens, NCI-H526) was > 512 nM, the IC50 (TE-11) was > 512 nM and the IC50 (A4-Fuk; Homo sapiens, A4-Fuk) was > 512 nM. The IC50 (NCI-H747; Homo sapiens, NCI-H747) was 421 nM, the IC50 (LS-123; Homo sapiens, LS-123) was > 512 nM and the IC50 (CTV-1; Homo sapiens, CTV-1) was 5.21 nM. For the same molecule, the IC50 (NCI-H69; Homo sapiens, NCI-H69) was > 512 nM, the IC50 (NCI-H82; Homo sapiens, NCI-H82) was > 512 nM and the IC50 (HDLM-2; Homo sapiens, HDLM-2) was > 512 nM. For the same molecule, the IC50 (MS-1; Homo sapiens, MS-1) was > 512 nM, the IC50 (LU-134-A; Homo sapiens, LU-134-A) was > 512 nM and the IC50 (ES6) was > 512 nM. The IC50 (QIMR-WIL; Homo sapiens, QIMR-WIL) was 334 nM, the IC50 (LU-139; Homo sapiens, LU-139) was > 512 nM and the IC50 (JVM-3; Homo sapiens, JVM-3) was > 512 nM. The IC50 (HAL-01; Homo sapiens, HAL-01) was > 512 nM, the IC50 (NCI-H1650; Homo sapiens, NCI-H1650) was > 512 nM and the IC50 (KY821; Homo sapiens, KY821) was > 512 nM. The IC50 (NKM-1; Homo sapiens, NKM-1) was 6.55 nM, the IC50 (KG-1; Homo sapiens, KG-1) was 32.9 nM and the IC50 (JVM-2; Homo sapiens, JVM-2) was > 512 nM. For the same molecule, the IC50 (ES3; Homo sapiens, ES3) was > 512 nM.
